According to US12414960B2, “Analogues of oleuropein and oleacein and uses thereof” (Attica Sciences Ltd., priority 2020, dated 2025):

How the values were obtained:
[1] = system: MIA PaCa-2 pancreatic cancer cells; test: Cell Glo luminescence cell growth assay, MIA PaCa-2; type: cell-based, human; conditions: NS = not statistically significant; for Effectiveness to suppress MIA PaCa-2 cell growth (cell growth inhibition): 50 uM, 24 h; for inhibition at 50 µM: Homo sapiens, MIA PaCa-2, 24 h, read-out: Effectiveness to suppress MIA PaCa-2 cell growth (cell growth inhibition)
Source text: (§1) The CellTiter-Glo® Luminescent Cell Viability Assay (Promega Corporation; Madison, WI) is a homogeneous method of determining the number of viable cells in culture based on quantitation of the ATP present, an indicator of metabolically active cells. The homogeneous assay procedure involves adding the single reagent (CellTiter-Glo® Reagent) directly to cells cultured in serum-supplemented medium. The homogeneous “add-mix-measure” format results in cell lysis and generation of a luminescent signal proportional to the amount of ATP present. The amount of ATP is directly proportional to the number of cells present in culture.
(§2) Cancer cells (3,000 cells/well) were harvested in a 96-well plate. Then, the cancer cells were treated with GS compounds and incubated for 24 hours. The MT Cell Viability Substrate, NanoLuc® Enzyme and cell culture medium was equilibrated to 37° C. The 2× RealTime-Glo™ reagent was prepared by diluting the MT Cell Viability Substrate and NanoLuc® Enzyme in 37° C. cell culture medium to a 2× concentration for each reagent. For example, 1 mL of 2× RealTime-Glo™ reagent was prepared by adding 2 μL of MT Cell Viability Substrate, 1,000×, and 2 μL of NanoLuc® Enzyme, 1,000×, to 996 μL of cell culture medium to form the 2× RealTime-Glo™ reagent. Then, an equal volume of 2× RealTime-Glo™ reagent was added to the cancer cells. The cells were kept for ˜20 minutes in the cell culture incubator and then luminescence was measured by using a plate-reading luminometer.
MIA PaCa-2 is a human pancreatic ductal adenocarcinoma cell line derived from the carcinoma of a person.
(§3) The effects of exemplary compounds on cancer cell lines and one non-tumorigenic cell line (control) were investigated using a high throughput screening assay. More specifically, the effects of the GS compounds on cell growth was evaluated by the XTT assay for cell lines HepG2, HeLa, MCF7 ER+, MDA-MB-231, and MKN-45, and by the Cell Glo luminescence assay for cell lines MIA PaCa-2, HCT-116, MCF-10A, and PANC-1.

[2] = system: HCT-116 colon cancer cells; test: Cell Glo luminescence cell growth assay, HCT-116; type: cell-based, human; conditions: NS = not statistically significant; for Effectiveness to suppress HCT-116 cell growth (cell growth inhibition): 1 uM, 24 h; for inhibition at 1 µM: Homo sapiens, HCT-116, 24 h, read-out: Effectiveness to suppress HCT-116 cell growth (cell growth inhibition)
Source text: as §1, §2
HCT-116 is a human colorectal cancer cell lines that has a mutation in RAS proto-oncogene.
as §3

[3] = Ferric reducing antioxidant power (FRAP) assay; type: biochemical; conditions: NS = not statistically significant
Source text: Reducing power is associated with antioxidant activity and may serve as a significant reflection of the antioxidant activity. Compounds with reducing power indicate that they are electron donors and can reduce the oxidized intermediates of lipid peroxidation processes, so that they can act as primary and secondary antioxidants.
In this assay, the yellow color of the test solution changes to various shades of green and blue depending on the reducing power of each compound. Presence of reducers causes the conversion of the Fe3+/ferricyanide complex used in this method to the ferrous form which when it reacts with iron chloride it gives a complex which absorbs at 700 nm. The higher the absorption at 700 nm, the greater the reducing capacity (FIG. 6).
The ferric reducing antioxidant capacity of the GS compounds was investigated by using the potassium ferricyanide-ferric chloride method (Tundis, Rosa et al. LWT—Food Science and Technology, 2013, 53: 370-377). Briefly, 0.2 mL of each of the GS compounds, 2.5 mL of phosphate buffer (0.2 M, pH 6.6), and 2.5 mL of potassium ferricyanide K3Fe(CN)6 (1%) were mixed and incubated at 50° C. for 20 min, to reduce ferricyanide into ferrocyanide. The reaction was stopped by adding 2.5 mL of 10% (w/v) trichloroacetic acid followed by centrifugation at 1000 rpm for 10 min. Finally, 2.5 mL of the upper layer was mixed with 2.5 mL of distilled water and 0.5 mL of FeCl3 (0.1%) and the absorbance was measured at 700 nm.

Row | Compound | Effectiveness to suppress MIA PaCa-2 cell growth (cell growth inhibition) [1] | inhibition at 50 µM [1] | Effectiveness to suppress HCT-116 cell growth (cell growth inhibition) [2] | inhibition at 1 µM [2] | Ferric Reducing Power Antioxidant Assay RP0.5AU [3]
1 | C/C=C(/C=O)[C@@H](CC=O)CC(=O)OCCCCCCCCCCCCCCCC [GS26, (3S,4E)-4-formyl-3-(2-oxoethyl)-4-hexenoic acid hexadecyl ester] | best efficacy | 70% | suppressive activity | 36.3% | 
2 | C/C=C(/C=O)[C@@H](CC=O)CC(=O)SCCc1ccccc1 [GS27, S-phenethyl (3S,4E)-4-formyl-3-(2-oxoethyl)hex-4-enethioate] | best efficacy | 91% | suppressive activity | 56.5% | 
3 | C/C=C1/[C@H](OC2OC(CO)C(O)C(O)C2O)OC=C(C(=O)O)[C@H]1CC(=O)OCCc1ccc(O)c(O)c1 (stereo in doubt) [GS6, (2S,4S,E)-4-(2-(3,4-dihydroxyphenethoxy)-2-oxoethyl)-3-ethylidene-2{[(2R,3S,4R,5R,6S)-3,4,5-trihydroxy-6-(hydroxymethyl)tetrahydro-2H-pyran-2-yl]oxy}-3,4dihydro-2H-pyran-5-carboxylic acid] |  |  |  |  | 36 μg extract/mL
4 | C/C=C(/C=O)[C@@H](CC=O)CC(=O)OCCc1ccc(O)cc1 [GS19, (3S,4E)-4-formyl-3-(2-oxoethyl)-4-hexenoic acid 2-(4-hydroxyphenyl)ethyl ester, reference compound] |  | 30% |  | 21.6% | 133 μg extract/mL
5 | C/C=C1/[C@H](O[C@@H]2O[C@H](CO)[C@@H](O)[C@H](O)[C@H]2O)OC=C(C(=O)OC)[C@H]1CC(=O)OCCc1ccc(O)c(O)c1 [GS1, oleuropein] |  |  |  |  | 35 μg extract/mL
6 | C/C=C(/C=O)[C@@H](CC=O)CC(=O)OCCCSC [GS28, (3S,4E)-4-formyl-3-(2-oxoethyl)-4-hexenoic acid 3-(methylthio)propyl ester] | best efficacy | 79% | suppressive activity | 34.4% | 
7 | C/C=C(/C=O)[C@@H](CC=O)CC(=O)OCCOc1ccccc1 [GS24, (3S,4E)-4-formyl-3-(2-oxoethyl)-4-hexenoic acid 2-phenoxyethyl ester] |  | 28% |  |  | 
8 | C/C=C(/C=O)[C@@H](CC=O)CC(=O)OCCc1ccc(O)c(O)c1 [GS17, (3S,4E)-4-formyl-3-(2-oxoethyl)-4-hexenoic acid 2-(3,4-dihydroxyphenyl)ethyl ester, reference compound] |  |  |  |  | 4.48 μg extract/mL
